Experimental data reported in publication PMC8991199, “Promiscuity mapping of the S100 protein family using a high-throughput holdup assay” (Scientific Reports, 2022).

Legend:
Assay type in all cases: binding
S100A12 = biological target: T1, S100A12 (Homo sapiens, UniProt P80511); assay: direct fluorescence polarization (FP), S100A12; conditions: S100A12, 50 nM labeled foldamer, 20 mM HEPES pH 7.5, 150 mM NaCl, 1 mM CaCl2, 0.5 mM TCEP, 0.01% Tween20, quadratic fit, mean ± SEM, three technical repeats, threshold 1 mM
T1 sequence (P80511 1-92): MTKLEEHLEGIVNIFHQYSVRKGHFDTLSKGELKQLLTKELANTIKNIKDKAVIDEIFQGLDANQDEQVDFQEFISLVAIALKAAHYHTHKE
Protocol: (§1) HTP (and also low-throughput) measurements generally need to be validated by an orthogonal approach to eliminate experimental artifacts. […] This way, we chose WL, IF, WW, YF, IL, VL, TW, RF, RR, TI, TM, and after resynthesizing with a fluorescent label at the C-terminus (Figs. S15–S26, Table S1), the S100ome was tested against the labeled foldamers by direct fluorescence polarization (FP) (Fig. 3A). In this assay, the association of the fluorescently labeled foldamer and the S100 protein of interest is monitored, through the change in polarization of the emitted light by the fluorophore upon the binding event. In direct FP, the presence of the fluorophore might change the binding affinity of some foldamers. […] Nevertheless, we assumed that the fluorophore would affect all foldamers that target the same binding site to the same degree, because the foldamer scaffold is rigid. Defining the threshold of detection at the dissociation constant of 1 mM, we identified 87 interactions between the selected foldamer fragments and the S100ome out of 220 possible interactions (Table 1, Fig. S4-14).
(§2) Briefly, S100 proteins were cloned into a modified pET15b vector with a TEV protease cleavable N-terminal His6-tag and expressed in Escherichia coli BL21 (DE3) cells, followed by Ni^2+-affinity chromatography. For HU assay, S100 proteins were further purified by either hydrophobic interaction chromatography or ion exchange chromatography without the cleavage of the N-terminal His6-tag applying standard conditions. For direct FP measurements, the N-terminal His6-tag was cleaved, and the S100 proteins were purified by hydrophobic interaction chromatography, ion exchange chromatography or size exclusion chromatography. The quality of the recombinant proteins was checked by SDS-PAGE analysis in all cases. The concentration of the recombinant S100 proteins was determined by UV spectrophotometry using the absorbance of Tyr and Trp residues.
(§3) In direct fluorescence polarization assays, S100 proteins were diluted in a buffer containing 50 nM labeled foldamer, 20 mM HEPES pH 7.5, 150 mM NaCl, 1 mM CaCl2, 0.5 mM TCEP and 0.01% Tween20. The dilution series (50 µl) were divided into three technical repeats and transferred (15 µl) to a 384-well microplate. In competitive fluorescence polarization assays, the buffer applied in direct measurements was supplemented with the S100 protein of interest to reach a saturation of 60–80%. This mixture was titrated with the competitor (i.e. the unlabeled peptide). Fluorescence polarization was measured in 8 different S100 concentrations (one of which contained no S100 protein) on a Synergy H4 plate reader using 485 ± 20 nm and 528 ± 20 nm band-pass filters for excitation and emission, respectively. The Kd values were obtained by fitting the data from the FP measurements with the python-based ProFit software using quadratic and competitive binding equation for direct and competitive FP, respectively. The detection threshold was based on two parameters. First, we rejected all fitted dissociation constants above 1 mM.

S100B = biological target: T2, S100B (Homo sapiens, UniProt P04271); assay: direct fluorescence polarization (FP), S100B; conditions: 50 nM labeled foldamer, 20 mM HEPES pH 7.5, 150 mM NaCl, 1 mM CaCl2, 0.5 mM TCEP, 0.01% Tween20, quadratic fit, mean ± SEM, three technical repeats, threshold 1 mM
T2 sequence (P04271 1-92): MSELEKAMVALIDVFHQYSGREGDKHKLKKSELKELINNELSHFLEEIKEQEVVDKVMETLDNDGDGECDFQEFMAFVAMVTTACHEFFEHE
Protocol: as §1, §2, §3

S100A13 = biological target: T3, S100A13 (Homo sapiens, UniProt Q99584); assay: direct fluorescence polarization (FP), S100A13; conditions: for Kd: S100A13, 50 nM labeled foldamer, 20 mM HEPES pH 7.5, 150 mM NaCl, 1 mM CaCl2, 0.5 mM TCEP, 0.01% Tween20, quadratic fit, mean ± SEM, three technical repeats, threshold 1 mM
T3 sequence (Q99584 1-98): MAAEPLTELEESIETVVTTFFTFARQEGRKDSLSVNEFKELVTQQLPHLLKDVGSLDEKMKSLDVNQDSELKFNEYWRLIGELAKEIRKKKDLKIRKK
Protocol: as §1, §2, §3

S100A4 = S100A4 (Homo sapiens, UniProt P26447); assay: direct fluorescence polarization (FP), S100A4; conditions: S100A4, 50 nM labeled foldamer, 20 mM HEPES pH 7.5, 150 mM NaCl, 1 mM CaCl2, 0.5 mM TCEP, 0.01% Tween20, quadratic fit, mean ± SEM, three technical repeats, threshold 1 mM
Chain of S100A4 (P26447 whole entry): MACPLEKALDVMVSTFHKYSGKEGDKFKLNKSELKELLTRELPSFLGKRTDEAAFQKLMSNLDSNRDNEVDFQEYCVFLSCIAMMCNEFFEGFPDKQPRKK
Description: (§4) HTP (and also low-throughput) measurements generally need to be validated by an orthogonal approach to eliminate experimental artifacts. […] In this assay, the association of the fluorescently labeled foldamer and the S100 protein of interest is monitored, through the change in polarization of the emitted light by the fluorophore upon the binding event. In direct FP, the presence of the fluorophore might change the binding affinity of some foldamers. […] Nevertheless, we assumed that the fluorophore would affect all foldamers that target the same binding site to the same degree, because the foldamer scaffold is rigid.
as §2, §3

S100A11 = biological target: T4, S100A11 (Homo sapiens, UniProt P31949); assay: direct fluorescence polarization (FP), S100A11; conditions: S100A11, 50 nM labeled foldamer, 20 mM HEPES pH 7.5, 150 mM NaCl, 1 mM CaCl2, 0.5 mM TCEP, 0.01% Tween20, quadratic fit, mean ± SEM, three technical repeats, threshold 1 mM
T4 sequence (P31949 1-105): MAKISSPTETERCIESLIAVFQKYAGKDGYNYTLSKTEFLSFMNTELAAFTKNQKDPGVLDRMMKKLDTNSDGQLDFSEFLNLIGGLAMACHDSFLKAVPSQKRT
Protocol: as §1, §2, §3

S100P = biological target: T5, S100P (Homo sapiens, UniProt P25815); assay: direct fluorescence polarization (FP), S100P; conditions: 50 nM labeled foldamer, 20 mM HEPES pH 7.5, 150 mM NaCl, 1 mM CaCl2, 0.5 mM TCEP, 0.01% Tween20, quadratic fit, mean ± SEM, three technical repeats, threshold 1 mM
T5 sequence (P25815 1-95): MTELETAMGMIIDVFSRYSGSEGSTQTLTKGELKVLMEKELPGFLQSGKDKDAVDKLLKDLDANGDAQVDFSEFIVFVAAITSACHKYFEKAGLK
Description: as §4, §2, §3

S100A10 = S100A10 (Homo sapiens, UniProt P60903); assay: direct fluorescence polarization (FP), S100A10; conditions: S100A10, 50 nM labeled foldamer, 20 mM HEPES pH 7.5, 150 mM NaCl, 1 mM CaCl2, 0.5 mM TCEP, 0.01% Tween20, quadratic fit, mean ± SEM, three technical repeats, threshold 1 mM
Chain of S100A10 (P60903 whole entry): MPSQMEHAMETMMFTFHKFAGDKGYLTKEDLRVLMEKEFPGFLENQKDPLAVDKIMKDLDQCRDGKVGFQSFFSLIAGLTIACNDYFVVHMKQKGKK
Description: as §4, §2, §3

| Kd (S100A12) | Kd (S100B) | Kd (S100A13) | Kd (S100A4) | Kd (S100A11) | Kd (S100P) | Kd (S100A10) | SMILES | increase of the polarization upon adding S100A13 (S100A13; Fig. 3A right panel) |
| --- | --- | --- | --- | --- | --- | --- | --- | --- |
| > 1000 µM | 280 ± 17 µM | > 1000 µM | 180 ± 46 µM | 570 ± 68 µM | – | – | C[C@@H](O)[C@@H](CC(=O)N[C@H]1CCCC[C@@H]1C(=O)N[C@H]1CCCC[C@@H]1C(=O)N[C@H](CC(=O)N[C@H]1CCCC[C@@H]1C(=O)NCC(=O)N[C@@H](CCCCNC(=O)c1ccc2c(c1)C1(OC2=O)c2ccc(O)cc2Oc2cc(O)ccc21)C(N)=O)Cc1c[nH]c2ccccc12)NC(=O)[C@H]1CCCC[C@@H]1N [fTW] | – |
| > 1000 µM | > 1000 µM | > 1000 µM | > 1000 µM | > 1000 µM | > 1000 µM | > 1000 µM | CSCC[C@@H](CC(=O)N[C@H]1CCCC[C@@H]1C(=O)NCC(=O)N[C@@H](CCCCNC(=O)c1ccc2c(c1)C1(OC2=O)c2ccc(O)cc2Oc2cc(O)ccc21)C(N)=O)NC(=O)[C@H]1CCCC[C@@H]1NC(=O)[C@H]1CCCC[C@@H]1NC(=O)C[C@@H](NC(=O)[C@H]1CCCC[C@@H]1N)[C@@H](C)O [fTM] | – |
| > 1000 µM | > 1000 µM | > 1000 µM | > 1000 µM | > 1000 µM | > 1000 µM | > 1000 µM | CC[C@H](C)[C@@H](CC(=O)N[C@H]1CCCC[C@@H]1C(=O)NCC(=O)N[C@@H](CCCCNC(=O)c1ccc2c(c1)C1(OC2=O)c2ccc(O)cc2Oc2cc(O)ccc21)C(N)=O)NC(=O)[C@H]1CCCC[C@@H]1NC(=O)[C@H]1CCCC[C@@H]1NC(=O)C[C@@H](NC(=O)[C@H]1CCCC[C@@H]1N)[C@@H](C)O [fTI] | – |
| > 1000 µM | 50 ± 6.4 µM | > 1000 µM | 210 ± 8.7 µM | > 1000 µM | > 1000 µM | 110 ± 5.5 µM | CC(C)C[C@@H](CC(=O)N[C@H]1CCCC[C@@H]1C(=O)NCC(=O)N[C@@H](CCCCNC(=O)c1ccc2c(c1)C1(OC2=O)c2ccc(O)cc2Oc2cc(O)ccc21)C(N)=O)NC(=O)[C@H]1CCCC[C@@H]1NC(=O)[C@H]1CCCC[C@@H]1NC(=O)C[C@@H](NC(=O)[C@H]1CCCC[C@@H]1N)C(C)C [fVL] | – |
| > 1000 µM | 63 ± 4.4 µM | > 1000 µM | 150 ± 4.8 µM | > 1000 µM | 330 ± 92 µM | 72 ± 1.6 µM | CC[C@H](C)[C@@H](CC(=O)N[C@H]1CCCC[C@@H]1C(=O)N[C@H]1CCCC[C@@H]1C(=O)N[C@H](CC(=O)N[C@H]1CCCC[C@@H]1C(=O)NCC(=O)N[C@@H](CCCCNC(=O)c1ccc2c(c1)C1(OC2=O)c2ccc(O)cc2Oc2cc(O)ccc21)C(N)=O)CC(C)C)NC(=O)[C@H]1CCCC[C@@H]1N [fIL] | – |
| > 1000 µM | 230 ± 5.9 µM | > 1000 µM | 460 ± 23 µM | 998 ± 217 µM | 190 ± 17 µM | 320 ± 19 µM | N=C(N)NCCC[C@@H](CC(=O)N[C@H]1CCCC[C@@H]1C(=O)N[C@H]1CCCC[C@@H]1C(=O)N[C@H](CC(=O)N[C@H]1CCCC[C@@H]1C(=O)NCC(=O)N[C@@H](CCCCNC(=O)c1ccc2c(c1)C1(OC2=O)c2ccc(O)cc2Oc2cc(O)ccc21)C(N)=O)Cc1ccccc1)NC(=O)[C@H]1CCCC[C@@H]1N [fRF] | – |
| > 1000 µM | 210 ± 26 µM | > 1000 µM | > 1000 µM | > 1000 µM | > 1000 µM | > 1000 µM | N=C(N)NCCC[C@@H](CC(=O)N[C@H]1CCCC[C@@H]1C(=O)NCC(=O)N[C@@H](CCCCNC(=O)c1ccc2c(c1)C1(OC2=O)c2ccc(O)cc2Oc2cc(O)ccc21)C(N)=O)NC(=O)[C@H]1CCCC[C@@H]1NC(=O)[C@H]1CCCC[C@@H]1NC(=O)C[C@H](CCCNC(=N)N)NC(=O)[C@H]1CCCC[C@@H]1N [fRR] | – |

| SMILES | Kd (S100A12) | Kd (S100B) | Kd (S100A13) | Kd (S100A4) | Kd (S100A11) | Kd (S100P) | Kd (S100A10) | increase of the polarization upon adding S100A13 (S100A13; Fig. 3A right panel) |
| --- | --- | --- | --- | --- | --- | --- | --- | --- |
| CC[C@H](C)[C@@H](CC(=O)N[C@H]1CCCC[C@@H]1C(=O)N[C@H]1CCCC[C@@H]1C(=O)N[C@H](CC(=O)N[C@H]1CCCC[C@@H]1C(=O)NCC(=O)N[C@@H](CCCCNC(=O)c1ccc2c(c1)C1(OC2=O)c2ccc(O)cc2Oc2cc(O)ccc21)C(N)=O)Cc1ccccc1)NC(=O)[C@H]1CCCC[C@@H]1N [fIF] | 590 ± 39 µM | 140 ± 7.9 µM | > 1000 µM | 93 ± 2.4 µM | 280 ± 15 µM | 140 ± 5.8 µM | 97 ± 2.5 µM | – |
| NC(=O)[C@H](CCCCNC(=O)c1ccc2c(c1)C1(OC2=O)c2ccc(O)cc2Oc2cc(O)ccc21)NC(=O)CNC(=O)[C@H]1CCCC[C@@H]1NC(=O)C[C@H](Cc1ccccc1)NC(=O)[C@H]1CCCC[C@@H]1NC(=O)[C@H]1CCCC[C@@H]1NC(=O)C[C@H](Cc1ccc(O)cc1)NC(=O)[C@H]1CCCC[C@@H]1N [fYF] | > 1000 µM | 28 ± 1.7 µM | > 1000 µM | 113 ± 5.2 µM | > 1000 µM | 79 ± 5.7 µM | 70 ± 3.5 µM | only a minor linear increase of the polarization |
| CC(C)C[C@@H](CC(=O)N[C@H]1CCCC[C@@H]1C(=O)NCC(=O)N[C@@H](CCCCNC(=O)c1ccc2c(c1)C1(OC2=O)c2ccc(O)cc2Oc2cc(O)ccc21)C(N)=O)NC(=O)[C@H]1CCCC[C@@H]1NC(=O)[C@H]1CCCC[C@@H]1NC(=O)C[C@H](Cc1c[nH]c2ccccc12)NC(=O)[C@H]1CCCC[C@@H]1N [fWL] | 254 ± 113 µM | 11 ± 0.81 µM | > 1000 µM | 46 ± 1.6 µM | > 1000 µM | 75 ± 5.8 µM | 23 ± 0.7 µM | – |
| NC(=O)[C@H](CCCCNC(=O)c1ccc2c(c1)C1(OC2=O)c2ccc(O)cc2Oc2cc(O)ccc21)NC(=O)CNC(=O)[C@H]1CCCC[C@@H]1NC(=O)C[C@H](Cc1c[nH]c2ccccc12)NC(=O)[C@H]1CCCC[C@@H]1NC(=O)[C@H]1CCCC[C@@H]1NC(=O)C[C@H](Cc1c[nH]c2ccccc12)NC(=O)[C@H]1CCCC[C@@H]1N [fWW] | > 1000 µM | > 1000 µM | > 1000 µM | – | > 1000 µM | 190 ± 6.9 µM | 150 ± 5.2 µM | – |
